pIC50: −log10 of the molar value.
Tests used:
Histone deacetylase 1 = Histone deacetylase 1 (Homo sapiens, UniProt Q13547); experiment: Inhibition of HDAC Enzyme Activity (In Vitro)
Procedure: (§1) In the HDAC1 assay, the test substance was treated at concentrations of 100, 1000, and 10000 nM, and in the HDAC6 assay, the test substance was treated at concentrations of 0.1, 1, 10, 100, and 1000 nM.

Histone deacetylase 6 = biological target: T1, Histone deacetylase 6 (Homo sapiens, UniProt Q9UBN7); experiment: Inhibition of HDAC Enzyme Activity (In Vitro)
T1 sequence (Q9UBN7 whole entry): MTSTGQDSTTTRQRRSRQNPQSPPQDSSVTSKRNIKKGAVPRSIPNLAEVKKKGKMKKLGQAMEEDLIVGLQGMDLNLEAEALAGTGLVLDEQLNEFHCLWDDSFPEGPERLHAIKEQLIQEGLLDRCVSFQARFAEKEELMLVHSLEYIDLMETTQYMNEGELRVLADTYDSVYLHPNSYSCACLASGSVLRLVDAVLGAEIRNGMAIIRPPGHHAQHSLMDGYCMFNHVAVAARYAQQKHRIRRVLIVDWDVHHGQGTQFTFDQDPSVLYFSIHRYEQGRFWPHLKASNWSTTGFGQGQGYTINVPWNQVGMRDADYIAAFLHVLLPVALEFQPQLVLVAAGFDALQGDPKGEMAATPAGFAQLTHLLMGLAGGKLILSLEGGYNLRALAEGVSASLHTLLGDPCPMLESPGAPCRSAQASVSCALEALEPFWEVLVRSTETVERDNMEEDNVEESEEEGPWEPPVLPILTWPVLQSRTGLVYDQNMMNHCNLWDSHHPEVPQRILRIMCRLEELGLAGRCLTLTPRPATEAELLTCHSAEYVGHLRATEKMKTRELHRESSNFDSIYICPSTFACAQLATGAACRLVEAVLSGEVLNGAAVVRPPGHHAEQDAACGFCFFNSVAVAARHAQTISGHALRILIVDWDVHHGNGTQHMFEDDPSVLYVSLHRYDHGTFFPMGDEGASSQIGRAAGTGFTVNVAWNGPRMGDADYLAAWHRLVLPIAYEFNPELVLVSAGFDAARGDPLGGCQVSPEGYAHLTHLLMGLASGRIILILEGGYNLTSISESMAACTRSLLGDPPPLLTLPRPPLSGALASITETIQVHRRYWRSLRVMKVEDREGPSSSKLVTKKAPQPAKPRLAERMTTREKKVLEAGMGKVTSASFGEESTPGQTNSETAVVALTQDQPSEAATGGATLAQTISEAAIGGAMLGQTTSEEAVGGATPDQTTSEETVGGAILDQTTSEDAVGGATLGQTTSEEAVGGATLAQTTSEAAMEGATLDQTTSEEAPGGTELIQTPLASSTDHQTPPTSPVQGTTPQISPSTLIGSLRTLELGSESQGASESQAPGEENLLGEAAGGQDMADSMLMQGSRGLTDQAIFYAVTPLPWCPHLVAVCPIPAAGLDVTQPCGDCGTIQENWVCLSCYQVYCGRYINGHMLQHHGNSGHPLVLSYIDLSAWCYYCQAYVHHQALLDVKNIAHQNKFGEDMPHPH
Procedure: as §1

Sequence of Histone deacetylase 1 (Q13547 whole entry): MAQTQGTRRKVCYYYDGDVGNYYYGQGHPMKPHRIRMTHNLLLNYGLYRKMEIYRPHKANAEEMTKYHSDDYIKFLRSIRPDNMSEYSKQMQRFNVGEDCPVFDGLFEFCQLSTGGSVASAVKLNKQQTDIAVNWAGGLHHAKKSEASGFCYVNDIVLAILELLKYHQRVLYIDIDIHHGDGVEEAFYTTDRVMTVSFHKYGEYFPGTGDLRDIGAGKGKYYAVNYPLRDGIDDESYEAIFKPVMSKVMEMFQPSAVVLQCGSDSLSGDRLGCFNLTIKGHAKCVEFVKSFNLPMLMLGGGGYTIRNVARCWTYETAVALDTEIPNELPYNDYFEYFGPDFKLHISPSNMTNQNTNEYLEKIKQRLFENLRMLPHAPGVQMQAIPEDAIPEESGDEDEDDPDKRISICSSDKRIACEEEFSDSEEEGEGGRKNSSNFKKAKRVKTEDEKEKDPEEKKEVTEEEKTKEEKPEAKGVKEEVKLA

- pIC50 (Histone deacetylase 1): < 5.00
- pIC50 (Histone deacetylase 6): 7.27
Structure (SMILES): CN1CCN(c2c(N(Cc3ccc(-c4nnc(C(F)F)o4)cc3F)c3cc(F)cc(-c4ccncc4)c3)c(=O)c2=O)CC1 [US20260028321, Compound 9]

— BindingDB's records for patent US20260028321 (Chong Kun Dang Pharmaceutical, 2026)
